Experimental data from US4959460A, “3'-deamino-3'-(2"-substituted-4"-morpholino)-anthracycline compounds” (priority 1988, dated 1990).
≈ marks a conversion by molar mass, not a printed value.

Columns and labels:
[1] = system: P388 mouse leukemia cells; experiment: Anti-proliferative activity against cultivated P388 mouse leukemia cells; assay type: cell-based; details: P388 cells 5×10^4 cells/ml, RPMI 1640, 10% fetal bovine serum, 37° C., read-out: 50% proliferation-inhibitory concentration (IC50)
Protocol: (1) Anti-proliferative activity against cultivated P388 mouse leukemia cells:
More specifically, a medium RPMI 1640 (Rosewell Park Memorial Institute medium 1640) containing a given amount of the 3'-deamino-3'-(2"-substituted-4"-morpholino) anthracycline compound and 10% fetal bovine serum was inoculated with cultivated P388 5×10^4 cells/ml. Incubation was carried out at 37° C. in a CO2 incubator, and the number of the cells in each medium was then counted to determine 50% proliferation-inhibitory concentration (IC50, ng/ml) relative to the control (no test compounds added).

P388 leukemia = experiment: Antitumor activity against P388 leukemia intraperitoneally transplanted into CDF2 mice; assay type: in vivo; details: for T/C: control = 100
Protocol: The effects of the test anthracycline compounds are shown below in terms of T/C (%), the survival days of the control mice to which physiological saline solutions was administered being specified as 100.

[2] = 0.5 mg/kg i.v., day 1 and day 5
[3] = 4 mg/kg i.v., administered only day 1
[4] = 16 mg/kg i.v., administered only day 1
[5] = 0.29 mg/kg i.v., day 1 and day 5
[6] = 0.44 mg/kg i.v., day 1 and day 5
[7] = 0.66 mg/kg i.v., day 1 and day 5
[8] = 0.99 mg/kg i.v., day 1 and day 5
[9] = 1.48 mg/kg i.v., day 1 and day 5
[10] = 2.22 mg/kg i.v., day 1 and day 5
[11] = 3.33 mg/kg i.v., day 1 and day 5
[12] = 5.00 mg/kg i.v., day 1 and day 5
[13] = 0.125 mg/kg i.v., day 1 and day 5
[14] = 0.25 mg/kg i.v., day 1 and day 5
[15] = 2 mg/kg i.v., administered only day 1
[16] = 1 mg/kg i.v., administered only day 1

CC[C@@]1(O)C[C@H](O[C@H]2C[C@H](N3CCO[C@H](N=[N+]=[N-])C3)[C@H](O)[C@H](C)O2)c2c(O)c3c(c(O)c2[C@H]1O)C(=O)c1cccc(O)c1C3=O [3'-Deamino-3'-[(2"S)-2"-azido-4"-morpholino]-13-deoxo-10-hydroxycarminomycin]
IC50 [1]: 0.024 µg/mL (≈ 0.0383 µM)
Number of cured mice/Number of test mice (P388 leukemia; [2]): 0/6
T/C (P388 leukemia; [2]): 122%
Number of cured mice/Number of test mice (P388 leukemia; 1 mg/kg i.v., day 1 and day 5): 0/6
T/C (P388 leukemia; 1 mg/kg i.v., day 1 and day 5): 163%
Number of cured mice/Number of test mice (P388 leukemia; 2 mg/kg i.v., day 1 and day 5): 0/6
T/C (P388 leukemia; 2 mg/kg i.v., day 1 and day 5): 231%
Number of cured mice/Number of test mice (P388 leukemia; [3]): 1/6
T/C (P388 leukemia; [3]): 355%

CC[C@@]1(O)C[C@H](O[C@H]2C[C@H](N3CCO[C@H](CO)C3)[C@H](O)[C@H](C)O2)c2c(O)c3c(c(O)c2[C@H]1O)C(=O)c1cccc(O)c1C3=O [3'-Deamino-3'-[(2"S) -2"-hydroxymethyl-4"-morpholino]-13-deoxo-10-hydroxycarminomycin]
IC50 [1]: 0.02 µg/mL (≈ 0.0325 µM)

CC[C@@]1(O)C[C@H](O[C@H]2C[C@H](N3CCO[C@H](NC(=O)C(F)(F)F)C3)[C@H](O)[C@H](C)O2)c2c(O)c3c(c(O)c2[C@H]1O)C(=O)c1cccc(O)c1C3=O [3'-Deamino-3'-[(2"S)-2"-trifluoroacetamido-4"-morpholino]-13-deoxo-10-hydroxycarminomycin]
IC50 [1]: 0.052 µg/mL (≈ 0.0746 µM)
Number of cured mice/Number of test mice (P388 leukemia; 2 mg/kg i.v., day 1 and day 5): 0/6
T/C (P388 leukemia; 2 mg/kg i.v., day 1 and day 5): 136%
Number of cured mice/Number of test mice (P388 leukemia; 4 mg/kg i.v., day 1 and day 5): 0/6
T/C (P388 leukemia; 4 mg/kg i.v., day 1 and day 5): 181%
Number of cured mice/Number of test mice (P388 leukemia; 8 mg/kg i.v., day 1 and day 5): 0/6
T/C (P388 leukemia; 8 mg/kg i.v., day 1 and day 5): 229%
Number of cured mice/Number of test mice (P388 leukemia; [4]): 0/6
T/C (P388 leukemia; [4]): 263%

CC[C@@]1(O)C[C@H](O[C@H]2C[C@H](N3CCOCC3)[C@H](O)[C@H](C)O2)c2c(O)c3c(c(O)c2[C@H]1O)C(=O)c1cccc(O)c1C3=O [3'Deamino-3'-morpholino-R20X2, reference compound]
Number of cured mice/Number of test mice (P388 leukemia; [5]): 0/6
T/C (P388 leukemia; [5]): 110%
Number of cured mice/Number of test mice (P388 leukemia; [6]): 0/6
T/C (P388 leukemia; [6]): 143%
Number of cured mice/Number of test mice (P388 leukemia; [7]): 0/6
T/C (P388 leukemia; [7]): 162%
Number of cured mice/Number of test mice (P388 leukemia; [8]): 0/6
T/C (P388 leukemia; [8]): 173%
Number of cured mice/Number of test mice (P388 leukemia; [9]): 0/6
T/C (P388 leukemia; [9]): 189%
Number of cured mice/Number of test mice (P388 leukemia; [10]): 0/6
T/C (P388 leukemia; [10]): 189%
Number of cured mice/Number of test mice (P388 leukemia; [11]): 0/6
T/C (P388 leukemia; [11]): 240%
Number of cured mice/Number of test mice (P388 leukemia; [12]): 0/6
T/C (P388 leukemia; [12]): 135%

CC[C@@]1(O)C[C@H](O[C@H]2C[C@H](N3CCO[C@H](NC(C)=O)C3)[C@H](O)[C@H](C)O2)c2c(O)c3c(c(O)c2[C@H]1O)C(=O)c1cccc(O)c1C3=O [3'-Deamino-3'-[(2"S)-2"-acetamido-4"-morpholino]-13-deoxo-10-hydroxycarminomycin]
IC50 [1]: 0.083 µg/mL (≈ 0.129 µM)
Number of cured mice/Number of test mice (P388 leukemia; 2 mg/kg i.v., day 1 and day 5): 0/6
T/C (P388 leukemia; 2 mg/kg i.v., day 1 and day 5): 124%
Number of cured mice/Number of test mice (P388 leukemia; 4 mg/kg i.v., day 1 and day 5): 0/6
T/C (P388 leukemia; 4 mg/kg i.v., day 1 and day 5): 124%
Number of cured mice/Number of test mice (P388 leukemia; 8 mg/kg i.v., day 1 and day 5): 0/6
T/C (P388 leukemia; 8 mg/kg i.v., day 1 and day 5): 146%
Number of cured mice/Number of test mice (P388 leukemia; 16 mg/kg i.v., day 1 and day 5): 0/6
T/C (P388 leukemia; 16 mg/kg i.v., day 1 and day 5): 340%

CC[C@@]1(O)C[C@H](O[C@H]2C[C@H](N3CCO[C@@H](OC)C3)[C@H](O)[C@H](C)O2)c2c(O)c3c(c(O)c2[C@H]1O)C(=O)c1cccc(O)c1C3=O [3'-Deamino-3'-[(2"R)-2"-methoxy-4"-morpholino]-13-deoxo-10-hydroxycarminomycin]
IC50 [1]: 0.009 µg/mL (≈ 0.0146 µM)
Number of cured mice/Number of test mice (P388 leukemia; [13]): 0/6
T/C (P388 leukemia; [13]): 119%
Number of cured mice/Number of test mice (P388 leukemia; [14]): 0/6
T/C (P388 leukemia; [14]): 149%
Number of cured mice/Number of test mice (P388 leukemia; [2]): 0/6
T/C (P388 leukemia; [2]): 172%
Number of cured mice/Number of test mice (P388 leukemia; 1 mg/kg i.v., day 1 and day 5): 0/6
T/C (P388 leukemia; 1 mg/kg i.v., day 1 and day 5): 181%
Number of cured mice/Number of test mice (P388 leukemia; [15]): 0/6
T/C (P388 leukemia; [15]): 36%

CC[C@@]1(O)C[C@H](O[C@H]2C[C@H](N3CCO[C@H](CCl)C3)[C@H](O)[C@H](C)O2)c2c(O)c3c(c(O)c2[C@H]1O)C(=O)c1cccc(O)c1C3=O [3'-Deamino-3'-[(2"S)-2"-chloromethyl-4"-morpholino]-13-deoxo-10-hydroxycarminomycin]
IC50 [1]: 0.036 µg/mL (≈ 0.0568 µM)

CC[C@@]1(O)C[C@H](O[C@H]2C[C@H](N3CCO[C@@H](N=[N+]=[N-])C3)[C@H](O)[C@H](C)O2)c2c(O)c3c(c(O)c2[C@H]1O)C(=O)c1cccc(O)c1C3=O [3'-Deamino-3'-[(2"R)-2"-azido-4"-morpholino]-13-deoxo-10-hydroxycarminomycin]
IC50 [1]: 0.0189 µg/mL (≈ 0.0302 µM)
Number of cured mice/Number of test mice (P388 leukemia; [14]): 0/6
T/C (P388 leukemia; [14]): 115%
Number of cured mice/Number of test mice (P388 leukemia; [2]): 0/6
T/C (P388 leukemia; [2]): 163%
Number of cured mice/Number of test mice (P388 leukemia; 1 mg/kg i.v., day 1 and day 5): 0/6
T/C (P388 leukemia; 1 mg/kg i.v., day 1 and day 5): 196%
Number of cured mice/Number of test mice (P388 leukemia; 2 mg/kg i.v., day 1 and day 5): 0/6
T/C (P388 leukemia; 2 mg/kg i.v., day 1 and day 5): 294%
Number of cured mice/Number of test mice (P388 leukemia; 4 mg/kg i.v., day 1 and day 5): 0/6
T/C (P388 leukemia; 4 mg/kg i.v., day 1 and day 5): 124%

CC[C@@]1(O)C[C@H](O[C@H]2C[C@H](N3CCO[C@H](C)C3)[C@H](O)[C@H](C)O2)c2c(O)c3c(c(O)c2[C@H]1O)C(=O)c1cccc(O)c1C3=O [3'-Deamino-3'-[(2"R)-2"-methyl-4"-morpholino]-13-deoxo-10-hydroxycarminomycin]
IC50 [1]: 0.034 µg/mL (≈ 0.0567 µM)

CC[C@@]1(O)C[C@H](O[C@H]2C[C@H](N3CCO[C@H](OC)C3)[C@H](O)[C@H](C)O2)c2c(O)c3c(c(O)c2[C@H]1O)C(=O)c1cccc(O)c1C3=O [3'-Deamino-3'-[(2"S)-2"-methoxy-4"-morpholino]-13-deoxo-10-hydroxycarminomycin]
IC50 [1]: 0.018 µg/mL (≈ 0.0292 µM)
Number of cured mice/Number of test mice (P388 leukemia; [13]): 0/6
T/C (P388 leukemia; [13]): 103%
Number of cured mice/Number of test mice (P388 leukemia; [14]): 0/6
T/C (P388 leukemia; [14]): 182%
Number of cured mice/Number of test mice (P388 leukemia; [2]): 0/6
T/C (P388 leukemia; [2]): 196%
Number of cured mice/Number of test mice (P388 leukemia; [16]): 0/6
T/C (P388 leukemia; [16]): 182%

CC[C@@]1(O)C[C@H](O[C@H]2C[C@H](N3CCO[C@@H](NC(=O)C(F)(F)F)C3)[C@H](O)[C@H](C)O2)c2c(O)c3c(c(O)c2[C@H]1O)C(=O)c1cccc(O)c1C3=O [3'-Deamino-3'-[(2"R)-2"-trifluoroacetamido-4"-morpholino]-13-deoxo-10-hydroxycarminomycin]
IC50 [1]: 0.0225 µg/mL (≈ 0.0323 µM)
Number of cured mice/Number of test mice (P388 leukemia; 2 mg/kg i.v., day 1 and day 5): 0/6
T/C (P388 leukemia; 2 mg/kg i.v., day 1 and day 5): 120%
Number of cured mice/Number of test mice (P388 leukemia; 4 mg/kg i.v., day 1 and day 5): 0/6
T/C (P388 leukemia; 4 mg/kg i.v., day 1 and day 5): 150%
Number of cured mice/Number of test mice (P388 leukemia; 8 mg/kg i.v., day 1 and day 5): 0/6
T/C (P388 leukemia; 8 mg/kg i.v., day 1 and day 5): 165%
Number of cured mice/Number of test mice (P388 leukemia; 16 mg/kg i.v., day 1 and day 5): 2/6
T/C (P388 leukemia; 16 mg/kg i.v., day 1 and day 5): 319%
